Biological target: T1, soluble lytic transglycosylase Cj0843 (Campylobacter jejuni, UniProt Q0PA47)
T1 construct: gene Cj0843c; Cj0843-pET28b expressed in E. coli (not glycosylated); native P3_121 model contains residues 19–76 and 81–532
Assay: crystal structure ([…] Å, soaked crystals) and DSF Kd; also partial inhibition in PG turbidity assay
Format: binding

T1 sequence (Q0PA47 entry or part of it): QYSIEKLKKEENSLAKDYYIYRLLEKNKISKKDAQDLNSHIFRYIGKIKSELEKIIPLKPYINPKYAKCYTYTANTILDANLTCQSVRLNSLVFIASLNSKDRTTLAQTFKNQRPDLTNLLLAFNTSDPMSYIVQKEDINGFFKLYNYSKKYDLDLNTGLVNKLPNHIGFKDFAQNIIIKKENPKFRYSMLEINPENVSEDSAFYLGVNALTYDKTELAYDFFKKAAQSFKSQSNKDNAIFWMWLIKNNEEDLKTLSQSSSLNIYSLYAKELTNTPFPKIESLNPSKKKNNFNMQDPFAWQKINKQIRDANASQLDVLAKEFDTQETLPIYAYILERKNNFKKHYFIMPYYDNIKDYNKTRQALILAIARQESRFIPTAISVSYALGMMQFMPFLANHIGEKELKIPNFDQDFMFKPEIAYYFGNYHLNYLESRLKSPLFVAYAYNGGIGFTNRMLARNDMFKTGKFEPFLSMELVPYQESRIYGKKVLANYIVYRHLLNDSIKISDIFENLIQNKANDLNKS

Compound `CC(=O)N[C@H]1[C@H](O[C@H]2C[C@@H](C(=O)NCCS(=O)(=O)O)N[C@@H]2CO)O[C@H](CO)[C@@H](OS(=O)(=O)O)[C@@H]1O` [bulgecin A] has a Kd of 210 µM.
